Measurements published in patent US12063932B2, “Method of promoting plant growth effects” (Bayer CropScience Aktiengesellschaft, priority 2016, dated 2024).

Columns and labels:
Type in all cases: in vivo
[1] = tested on: Soybean seeds of the variety Merlin; assay: Soybean seed treatment: comparative photographs of seedlings after 19 days (Example C)
Protocol: FIGS. 1A-1H. Soybean seeds of the variety Merlin were untreated FIG. 1A (top view) and FIG. 1B (side view), or treated 1.2 g/100 kg/seeds of Compound (A) in FIG. 1C (top view) and FIG. 1D (side view); or treated with 0.6 g/100 kg seeds of Compound (A) in FIG. 1E (Lop view) and FIG. 1F (side view); or treated with 0.3 g/100 kg seeds of compound (A) in FIG. 1G (top view) and FIG. 1H (side view). Seedlings were evaluated after 19 days. Soybean seeds of the variety Merlin were treated with 1.2, 0.6 and 0.3 g of compound (A) per 100 kg seeds. Compound (A) was provided as an aqueous solution with a concentration of 1000 ppm compound (A). The treated seeds were seeded into soil/quartz in five replicates at the same day. Germination was observed four days later. Comparative photographs were taken after 19 days.

[2] = tested on: Soybean seeds of the variety Merlin; assay: Soybean seed treatment: plant height, fresh and dry weight of stem and roots after 19 days (Example A); conditions: for dry weight roots, % of untreated control / dry weight stem, % of untreated control / fresh weight roots, % of untreated control / fresh weight stem, % of untreated control: untreated control given as 100
Protocol: (§1) Soybean seeds of the variety Merlin were treated with 1.2, 0.6 and 0.3 g of compound (A) per 100 kg seeds. Compound (A) was provided as an aqueous solution with a concentration of 1000 ppm compound (A). The treated seeds were seeded into soil/quartz in five replicates at the same day. Germination was observed four days later. Plant height, fresh and dry weight of stem and roots were determined after 19 days.

[3] = tested on: Soybean seeds of the variety Merlin; assay: Soybean seed treatment: root volume after 19 days (Example B); conditions: untreated control 0.82
Protocol: as §1, with “Root volume was” for “Plant height, fresh and dry weight of stem and roots were”

[4] = tested on: Roses of the variety Kordana Mixkar; assay: Rose foliar application: number of flowers by visual inspection (Example D); conditions: for No Flowers, Average (A to E): average of five replicates, untreated controls 9.4 and 10.2; for No Flowers, A: replicate A; for No Flowers, A / No Flowers, B / No Flowers, C / No Flowers, D / No Flowers, E: assessed 2016-06-14; for No Flowers, B: replicate B; for No Flowers, C: replicate C; for No Flowers, D: replicate D; for No Flowers, E: replicate E
Protocol: FIGS. 2A-2H. Rose plants of the variety Kordana Mixkar were treated in five replicates. Untreated control is shown in FIG. 2A (side view) and FIG. 2B (top view). Treatment at 1 ppm is shown in FIG. 2C (side view) and FIG. 2D (top view). Treatment at 80 ppm is shown in FIG. 2E (side view) and FIG. 2F (top view). Treatment at 420 ppm is showing in FIG. 2G (side view) and FIG. 2H (top view). Rose plants were evaluated for quantity and fullness of flowers.
Roses of the variety Kordana Mixkar were cultivated in 2 litre pots in soil in the greenhouse at 23 degree Celsius and 80% humidity. Compound (A) and Clopyralid as a comparison were applied as a foliar application on 2016-05-25 at application rates according to the following table 3 Ammonium sulfate and methylated soybean oil were used as penetration enhancing agents.
Rose plants were treated in five replicates. The number of flowers was assessed by visual inspection on 2016-06-14.

[5] = 0.3 g/100 kg seeds, photographs after 19 days (FIGS. 1G, 1H)
[6] = 0.6 g/100 kg seeds, photographs after 19 days (FIGS. 1E, 1F)
[7] = seed treatment 0.3 g/100 kg seeds
[8] = seed treatment 0.6 g/100 kg seeds
[9] = seed treatment 1.2 g/100 kg seeds

`O=C(O)c1ncc(C(F)(F)F)cc1Cl` [Compound (A), 3-chloro-5-(trifluoromethyl)pyridine-2-carboxylic acid] was tested. Which “biomass of leaves in comparison to the untreated control” value [1, 5] did it give?
The value was “increased biomass of leaves”.

And the “growth of the seedlings in comparison to the untreated control” value [1, 5]?
The value was “higher growth of the seedlings”.

And the “biomass of leaves in comparison to the untreated control” value [1, 6]?
The value was “increased biomass of leaves”.

What about the “growth of the seedlings in comparison to the untreated control” value [1, 6] of the same compound?
Its value is “higher growth of the seedlings”.

And the “Fresh weight plant” value [2, 7]?
The value was 2.62 g.

And the “Plant height [% of untreated control]” value [2, 7]?
The value was 111 % of untreated control.

What about the dry weight roots, % of untreated control [2, 7] of the same compound?
Its dry weight roots, % of untreated control is 105%.

What about the dry weight stem, % of untreated control [2, 7] of the same compound?
Its dry weight stem, % of untreated control is 114%.

And the fresh weight roots, % of untreated control [2, 7]?
Its fresh weight roots, % of untreated control is 106%.

And the fresh weight stem, % of untreated control [2, 7]?
Its fresh weight stem, % of untreated control is 103%.

What about the “Fresh weight plant” value [2, 8] of the same compound?
Its value is 2.53 g.

And the “Plant height [% of untreated control]” value [2, 8]?
The value was 103 % of untreated control.

And the dry weight roots, % of untreated control [2, 8]?
The dry weight roots, % of untreated control was 108%.

And the dry weight stem, % of untreated control [2, 8]?
Its dry weight stem, % of untreated control is 107%.

What about the fresh weight roots, % of untreated control [2, 8] of the same compound?
The fresh weight roots, % of untreated control was 107%.

What about the fresh weight stem, % of untreated control [2, 8] of the same compound?
Its fresh weight stem, % of untreated control is 100%.

And the “Fresh weight plant” value [2, 9]?
The value was 2.24 g.

And the “Plant height [% of untreated control]” value [2, 9]?
The value was 87 % of untreated control.

And the dry weight roots, % of untreated control [2, 9]?
Its dry weight roots, % of untreated control is 68%.

What about the dry weight stem, % of untreated control [2, 9] of the same compound?
The dry weight stem, % of untreated control was 77%.

And the fresh weight roots, % of untreated control [2, 9]?
The fresh weight roots, % of untreated control was 69%.

What about the fresh weight stem, % of untreated control [2, 9] of the same compound?
The fresh weight stem, % of untreated control was 88%.

And the “Root volume [cm^3]” value [3, 7]?
The value was 0.83 cm^3.

And the “Root volume [cm^3]” value [3, 8]?
Its value is 0.96 cm^3.

What about the “Root volume [cm^3]” value [3, 9] of the same compound?
Its value is 0.50 cm^3.

And the “No Flowers, Average (A to E)” value ([4]; 1 ppm foliar)?
Its value is 9.6.

And the “No Flowers, A” value ([4]; 1 ppm foliar)?
Its value is 8.

What about the “No Flowers, B” value ([4]; 1 ppm foliar) of the same compound?
Its value is 7.

And the “No Flowers, C” value ([4]; 1 ppm foliar)?
Its value is 11.

And the “No Flowers, D” value ([4]; 1 ppm foliar)?
Its value is 10.

And the “No Flowers, E” value ([4]; 1 ppm foliar)?
The value was 12.

What about the “No Flowers, Average (A to E)” value ([4]; 10 ppm foliar) of the same compound?
The value was 10.2.

And the “No Flowers, A” value ([4]; 10 ppm foliar)?
Its value is 11.

What about the “No Flowers, B” value ([4]; 10 ppm foliar) of the same compound?
Its value is 10.

What about the “No Flowers, C” value ([4]; 10 ppm foliar) of the same compound?
The value was 10.

And the “No Flowers, D” value ([4]; 10 ppm foliar)?
The value was 10.

And the “No Flowers, E” value ([4]; 10 ppm foliar)?
Its value is 10.

And the “No Flowers, Average (A to E)” value ([4]; 20 ppm foliar)?
The value was 10.6.

And the “No Flowers, A” value ([4]; 20 ppm foliar)?
The value was 11.

What about the “No Flowers, B” value ([4]; 20 ppm foliar) of the same compound?
The value was 10.

What about the “No Flowers, C” value ([4]; 20 ppm foliar) of the same compound?
The value was 12.

What about the “No Flowers, D” value ([4]; 20 ppm foliar) of the same compound?
The value was 10.

What about the “No Flowers, E” value ([4]; 20 ppm foliar) of the same compound?
Its value is 10.

What about the “No Flowers, Average (A to E)” value ([4]; 40 ppm foliar) of the same compound?
Its value is 11.2.

And the “No Flowers, A” value ([4]; 40 ppm foliar)?
The value was 11.

And the “No Flowers, B” value ([4]; 40 ppm foliar)?
Its value is 8.

What about the “No Flowers, C” value ([4]; 40 ppm foliar) of the same compound?
The value was 13.

What about the “No Flowers, D” value ([4]; 40 ppm foliar) of the same compound?
Its value is 12.

And the “No Flowers, E” value ([4]; 40 ppm foliar)?
Its value is 12.

And the “No Flowers, Average (A to E)” value ([4]; 80 ppm foliar)?
Its value is 11.4.

And the “No Flowers, A” value ([4]; 80 ppm foliar)?
The value was 12.

What about the “No Flowers, B” value ([4]; 80 ppm foliar) of the same compound?
The value was 13.

And the “No Flowers, C” value ([4]; 80 ppm foliar)?
Its value is 11.

What about the “No Flowers, D” value ([4]; 80 ppm foliar) of the same compound?
The value was 11.

What about the “No Flowers, E” value ([4]; 80 ppm foliar) of the same compound?
The value was 10.

And the “No Flowers, Average (A to E)” value ([4]; 170 ppm foliar)?
Its value is 8.8.

And the “No Flowers, A” value ([4]; 170 ppm foliar)?
The value was 8.

And the “No Flowers, B” value ([4]; 170 ppm foliar)?
The value was 10.

What about the “No Flowers, C” value ([4]; 170 ppm foliar) of the same compound?
Its value is 10.

What about the “No Flowers, D” value ([4]; 170 ppm foliar) of the same compound?
Its value is 5.

And the “No Flowers, E” value ([4]; 170 ppm foliar)?
Its value is 11.

And the “No Flowers, Average (A to E)” value ([4]; 250 ppm foliar)?
The value was 5.4.

What about the “No Flowers, A” value ([4]; 250 ppm foliar) of the same compound?
The value was 3.

What about the “No Flowers, B” value ([4]; 250 ppm foliar) of the same compound?
Its value is 9.

And the “No Flowers, C” value ([4]; 250 ppm foliar)?
The value was 3.

What about the “No Flowers, D” value ([4]; 250 ppm foliar) of the same compound?
The value was 4.

And the “No Flowers, E” value ([4]; 250 ppm foliar)?
Its value is 8.

What about the “No Flowers, Average (A to E)” value ([4]; 420 ppm foliar) of the same compound?
Its value is 5.

And the “No Flowers, A” value ([4]; 420 ppm foliar)?
The value was 8.

What about the “No Flowers, B” value ([4]; 420 ppm foliar) of the same compound?
The value was 7.

And the “No Flowers, C” value ([4]; 420 ppm foliar)?
The value was 3.

And the “No Flowers, D” value ([4]; 420 ppm foliar)?
Its value is 4.

What about the “No Flowers, E” value ([4]; 420 ppm foliar) of the same compound?
Its value is 3.

What about the “No Flowers, Average (A to E)” value ([4]; 850 ppm foliar) of the same compound?
The value was 5.2.

And the “No Flowers, A” value ([4]; 850 ppm foliar)?
The value was 2.

What about the “No Flowers, B” value ([4]; 850 ppm foliar) of the same compound?
Its value is 3.

And the “No Flowers, C” value ([4]; 850 ppm foliar)?
Its value is 10.

And the “No Flowers, D” value ([4]; 850 ppm foliar)?
Its value is 5.

What about the “No Flowers, E” value ([4]; 850 ppm foliar) of the same compound?
Its value is 6.

What about the “quantity and fullness of flowers versus untreated controls” value ([4]; foliar application, up to a concentration of 80 ppm, FIGS. 2C-2H) of the same compound?
The value was “more and fuller flowers than the untreated controls”.
